From patent US11033545B2, “Negative allosteric modulators of MGLUR5 for use in the treatment of mature brain damages” (Sinntaxis AB, priority 2016, dated 2021)

How the values were obtained:
male C57/BL6 mice [1] = test: Paw placement test after photothrombotic stroke in the mouse; format: in vivo
male Sprague Dawley rats = test: Paw placement test after photothrombotic stroke in the rat; format: in vivo
Experimental: Animals. All experiments were carried out with the approval of the Malmö-Lund animal review board and according to the ARRIVE guidelines. Animals were housed under reverse light conditions, with the testing performed during the dark period when the rats are active. The experiments were carried out on male Sprague Dawley rats (11 weeks of age, Charles River, Scanbur A/S Karlslunde, Denmark). The studies were subjected to randomization and carried out in a blinded fashion to the investigators who performed the surgeries and behavioral assessment.
Administration of compound. The compound was injected as a bolus dose of 1 ml/kg into the lower quadrant of the abdomen.
(§1) Experimental stroke. The animals were anesthetized by isoflurane (approximately 2% in 02 under spontaneous ventilation) and placed into stereotaxic frame. Temperature was monitored during surgery using a rectal temperature probe and animals were kept at 37.0-37.5±0.2° C. by means of a heating pad with feedback control. A sagittal skin incision was made and subcutaneous connective tissue was removed and the skull was dried. Thereafter, the photosensitizer dye Rose Bengal (0.5 mL at 10 mg/mL) was infused in the tail vein. Two minutes after injection, the skull was illuminated with cold light (Schott, KL 1500 LCD) on an area of 8 to 4.5 mm for 15 min (from +4 to −4 mm antero-posterior and from 0.5 to 5 mm on the left from bregma). Thereafter the tail and the scalp incisions were sutured and the rats transferred to their home cage. The functional deficit was assessed 2 h after the onset of the stroke using the limb placement test and only the animals having a score 0, for both fore- and hindlimb contralateral to the brain damaged hemisphere were used for the study.
Test of neurological function. The paw placement test. The cortical damage inflicted by the phothrombosis, causes a deficit due to neuronal loss in the sensori-motor area and depression of functions in neuronal networks in the vicinity of the lesion. […] This test provides information on the tactile/proprioceptive response to limb stimulation. Animals were placed with all 4 paws on the table top, and the paws to be tested along the edge. The rat was moved over the edge so the paws to be tested loose contact with the table surface. The ability of the animals to place the limb back onto the table surface when the rat was moved towards the edge was evaluated. Importantly, the head was held at 45° angle, so that visual and whisker/snout stimulation was prevented. A prompt placement of the limb onto the table was scored as 1. Incomplete placing of the limb was scored as 0.5, and complete extension of the limb and paw was scored as 0. In order to obtain groups with a similar functional deficit prior to treatment of the animals with drugs or vehicle, selective sorting was performed on day 2 after experimental stroke, a time point of recovery when the infarct development had subsided.
(§2) Administration of the compounds. The compounds were administrated orally (p.o.) by catheters placed in the stomach. The amount of solutions were 0.2 ml/rat and 0.1 ml/mice.
(§3) Induction of stroke was as made as in Example 1 for rats and as in Example 2 in mice. Assessment of neurological function was performed as in Example 1 for rats and as in Example 2 for mice. The animals were perfused and immunostained as in Example 1, and the infarct size was assessed as in Example 1.
Induction of stroke, assessment of neurological function, perfusion of animals, immunostaining and assessment of infarct size were made as in Example 1.

male C57/BL6 mice [2] = test: Paw placement test after photothrombotic stroke in the mouse; format: in vivo; conditions: for paw function: continued for 5 days, FIG. 3C
Experimental: Animals. All experiments were carried out with the approval of the Malmo-Lund animal review board and according to the ARRIVE guidelines. The experiments were carried out on male C57/BL6 mice (8 weeks of age, Charles River Scanbur A/S Karlslunde, Denmark). Studies were subjected to randomization and carried out in a blinded fashion to the investigators who performed the surgeries and behavioral assessment.
Materials were as in Example 1 and the administration of the drug was made as in Example 1. Also the positive allosteric modulator (PAM) for the mGlur5 receptor was SIN006 (N-Cyclobutyl-6-[2-(3-fluorophenyl)ethynyl]-3-pyridinecarboxamide hydrochloride; VU0360172).
Induction of stroke in the mouse. Mice were subjected to unilateral photothrombotic (PT) cortical infarct in the left sensori-motor cortex. During surgery, the body temperature of the animals was kept at 37° C. using a self-regulating heating pad. Animals were anesthetized using 1.5-2.5% isoflurane (Sigma) in 100% 02. The skin above the skull was incised; a fiber optic bundle with a 2.5 mm aperture diameter was connected to a cold light source (CL 1500 ECO, Zeiss, Germany) and adjusted to the stereotaxic coordinates of the sensori-motor cortex, 0.5 mm anterior to bregma and 1.5 mm lateral to midline. One intraperitoneal (i.p.) injection of 0.25 ml Rose Bengal (10 mg/ml in 0.9% saline; Sigma-Aldrich, Germany) was given 5 min before the light was turned on for 20 minutes. Care was taken not to exceed 38° C. at the skull surface, underneath the fiber optic bundle. Post surgery, animals were allowed to awake from anesthesia while on a heating pad and returned to the cages with free access to food pellets and water.
Enriched housing. It is well known that housing of rodents in an enriched environment stimulates the various sensori-motor systems of the brain enhancing recovery after experimental stroke. Enriched housing was accomplished by the following procedure. After selective sorting at day 2 after stroke, mice were randomly distributed into standard (STD, 17 cm×16 cm×34.5 cm) or enriched cages (EE, 30 cm×27 cm×43 cm). Multilevel-enriched cages were equipped with various colored objects such as plastic tunnels, small houses, slides and rodent running wheels; the disposition of the objects was changed every second day. Mice were housed in either standard (2 animals/cage) or enriched cages (6-8 animals/cage) for 12 days. Animals in standard cages were handled similarly except for the housing condition.
Paw placement test. The mouse was held along its rostro-caudal extension on the edge of a bench and both the unilateral front and hind paws were gently pushed along it. The placement of each paw was recorded when the mouse was moved towards the edge. Sensori-motor dysfunction was assessed by using a score of 1, 0.5, and 0: (1)—the paw is immediately placed on the table surface; (0.5)—the limb is extended, but with some movements and attempts to place the paw on the surface of the table; (0)—the paw is totally immobilized, hanging down, with no movement. In order to obtain groups with a similar functional deficit prior to treatment of the animals with drugs or vehicle, selective sorting was performed on day 2 after experimental stroke, a time point of recovery when the infarct development had subsided.
as §2, §3

mGluR5 KO rats = test: Paw placement test after stroke in mGluR5 KO rats; format: in vivo, rat; conditions: SIN013 treatment, FIG. 3D
Experimental: as §1, with “Two minutes after injection, the skull was illuminated with cold light (Schott, KL 1500 LCD) on an area of 8 to 4.5 mm for 15 min (from +4 to −4 mm antero-posterior and from 0.5 to 5 mm on the left from bregma). Thereafter the tail and the scalp incisions were sutured and the rats transferred to their home cage.” left out
Test of neurological function. […] The ability of the animals to place the limb back onto the table surface when the rat was moved towards the edge was evaluated. […] A prompt placement of the limb onto the table was scored as 1. Incomplete placing of the limb was scored as 0.5, and complete extension of the limb and paw was scored as 0. […]
Induction of stroke was as made as in Example 1 for rats and as in Example 2 in mice. […] The animals were perfused and immunostained as in Example 1, and the infarct size was assessed as in Example 1.

## Cl.O=C(NC1CCC1)c1ccc(C#Cc2cccc(F)c2)nc1 [SIN006, N-Cyclobutyl-6-[2-(3-fluorophenyl)ethynyl]-3-pyridinecarboxamide hydrochloride]
Male C57/BL6 mice [1]; SIN006 30 mg/kg p.o. concomitant with 5 days enriched housing after stroke, FIG. 2E
  effect on enhanced recovery of function by enriched environment: completely blocked
Male C57/BL6 mice [1]; SIN006 30 mg/kg p.o. daily, 1 hour prior to SIN007 5 mg/kg i.p., starting two days after stroke, FIG. 2D
  paw placement score after 5 days of treatment: did not recover function

## Fc1ccc2nc(CCC#Cc3ccccn3)cn2c1 [SIN008, 6-Fluoro-2-[4-(pyridin-2-yl)-3-butynyl]imidazo[1,2-a]pyridine]
Male Sprague Dawley rats; rat, 30 mg/kg p.o. for 5 days, started 2 days after stroke, vs vehicle, FIG. 3A
  neurological function (paw placement): significantly improved neurological function

## CN1CC(=O)N=C1NC(=O)Nc1cccc(Cl)c1 [SIN010, 1-(3-chlorophenyl)-3-(3-methyl-5-oxo-4H-imidazol-2-yl)urea]
Male C57/BL6 mice [2]; mice, daily SIN010 plus enriched housing from 2 days after stroke, vs Vh, EE alone or SIN010 alone, FIG. 4B
  recovery of function, combined with enriched housing: further improves recovery
Male Sprague Dawley rats; rat, 10 mg/kg p.o. daily for 5 days or 12 days, initiated 2 days after stroke, FIG. 4A
  recovery of function: improves recovery function
Male Sprague Dawley rats; rat, 10 mg/kg p.o. daily for 12 days, initiated 2 days after stroke, vs vehicle, FIG. 4A
  improvement of function, time dependence: significant after 12 days of treatment

## Cc1nc(C#Cc2ccnc(Cl)c2)c(C)n1-c1ccc(OC(F)(F)F)cc1 [SIN013, 2-chloro-4-[2-[2,5-dimethyl-1-[4-(trifluoromethoxy)phenyl]imidazol-4-yl]ethynyl]pyridine]
Male C57/BL6 mice [2]; mouse, 2 mg/kg daily, started 2 days after stroke, p<0.05
  paw function: enhancement of function, which was significant
Male C57/BL6 mice [2]; mouse, 2 mg/kg every 48 h, started 2 days after stroke
  paw function: enhancement of function
Male Sprague Dawley rats; wild type rat, 2 mg/kg/day p.o. for 5 days, initiated 2 days after stroke, vs vehicle, FIG. 3D
  paw placement function: significantly improved paw placement function
mGluR5 KO rats
  recovery of paw placement function: recovery stimulated by SIN013 treatment was not seen

## Cc1nc(C#Cc2ccnc(Cl)c2)c(C)n1-c1ccc(F)cc1 [SIN014]
Male C57/BL6 mice [2]; mouse, 10 mg/kg p.o. for 5 days (higher dose; lower dose 5 mg/kg p.o.), FIG. 3E
  functional recovery: improved functional recovery at the higher dose

## COC(=O)N1CC[C@@H]2[C@H]1CCC[C@@]2(O)C#Cc1cccc(C)c1 [SIN 011, (3aR,4S,7aR)-Octahydro-4-hydroxy-4 [2-(3-methylphenyl)ethynyl]-1H-indole-1-carboxylic acid methyl ester]
Male C57/BL6 mice [2]; mouse, 30 mg/kg p.o. daily for 5 days, started 2 days after stroke, vs vehicle, p<0.01, FIG. 3B
  paw placement function: significant recovery of paw function

## N#Cc1cc(F)cc(-c2nc(-c3ccc(F)cn3)no2)c1 [SIN 015, 3-fluoro-5-(3-(5-fluoropyridin-2-yl)-1,2,4-oxadiazol5-yl)benzonitrile]
Male Sprague Dawley rats; rat, 3 mg/kg for 5 days starting 2 days after stroke, FIG. 4C
  recovery of function: improved recovery of function
